In one assay the test system is C6 rat astrocytoma. Briefly: Cell viability, C6 cells. It is filed as cell-based. To be noted: read-out: reduction of cell viability. From the text:
Rat glioma C6 and human glioblastoma U251 cell lines were a kind gift from Dr. Pedro Tranque (Universidad de Castilla-La Mancha, Albacete, Spain), murine melanoma B 16, and human adenocarcinoma HeLa, were a kind gift from Dr. Sinisa Radulovic (Institute for Oncology and Radiology of Serbia, Belgrade, Serbia) while mouse fibrosarcoma L929 was obtained from the European Collection of Animal Cell Cultures (Salisbury, UK). Human breast HCC1419 and prostate PC-3 cells were purchased from LGC Promochem srl (Venezia, Italy). Primary mouse fibroblasts and rat astrocytes were prepared as described (Mijatovic et al. 2004). […]
Reduction of 3-4,5-dimethylthiazol-2-yl)-2,5-diphenyltetrazolium bromide (MTT) to formazan depends on mitochondrial activity of cultured cells, absorption of crystal violet dye correlates with the number of adherent, live cells, while the release of cytosolic lactate dehydrogenase (LDH) indicates the disruption of membrane integrity caracteristic for necrotic cells. […] Mitohondrial-dependent production of formazan and intensity of absorbed crystal violet by adherent cells were assessed by an automated microplate reader at 570 nm, while the pyruvate-mediated conversion of 2,4-dinitrophenylhydrazine into visible hydrazone precipitate in LDH assay was measured at 492 nm. […]
FIG. 2. […] Cell viability was then evaluated by CV test. […]

The next assay concerns B16 cells. The assay is described as follows: Cell proliferation by CFSE staining, B16. It is filed as cell-based, mouse. To be noted: 18.8 μM, 48 h, B16 cells which survived the treatment. As for the experimental part:
Rate of cell proliferation was verified by flow cytometric analysis of cells labelled with CFSE (Kang et al. 2005). CFSE dye is stable in cytoplasm more than 15 generations and the intensity of fluorescence decline after each division. Briefly, detached cells were stained with 1.5 μM CFSE for the 15 min at 37° C., washed 2 times, seeded in 6-well plates at 2×10^5 cells/well and then exposed to drugs. After 24 and 48 h of cultivation cells were trypsinized and washed 2 times. Finally, the cells were resuspended in PBS and analyzed by flow cytometry. Green fluorescence emission was measured with a FACSCalibur (BD, Heidelberg, Germany) and analyzed using CellQuest software.
FIG. 4. […] Results are calculated as indicated in materials and methods and presented as mean±SD from representative of three independent experiment (*p <0.05). […] After 24 h of cultivation without or with drugs, cells were stained with AO orange (B) or PI (C) and analyzed by flow cytometry. The data are presented as mean±SD from three independent experiments. *p<0.05, refers to untreated cultures. […] Cells were incubated with 18.8 μM of Sag or Saq-NO2 for 24 h. After that, the drugs were either removed or not from the cells and incubated for additional 24 h. Cell viability was determined by CV test after 24 and 48 h of incubation (right panels). […]

A further assay has as its system C6 cells. Briefly: Cyclin D3 and p53 expression (cELISA, immunocytochemistry, Western blot), C6. It counts as cell-based, rat. To be noted: 18.8 μM, 24 h (Western blot 4 h). The source says: A slightly modified method for cell-based ELISA (cELISA) by Versteeg (Versteed et al., 2000) was used to measure the expression of galactocerebroside, glial fibrilar acidic protein (GFAP), myelin basic protein (MBP), cyclin D3, p53 and p-AKT. Briefly, at the end of cultivation period cells were fixed in 4% paraformaldehyde, endogenous peroxydase was quenched with 1% H2O2 in PBS containing 0.1% Triton X-100 (PBST), and unspecific binding of antibodies blocked with PBST solution containing 10% FCS. […] The absorbance at 450 nm was measured in an automated microplate reader 15 min after incubation with peroxydase substrate TMB and subsequently to addition of 0.1 M HCl. To facilitate comparison between treatments, the obtained absorbances were corrected for the cell number that was determined by crystal violet staining, as described in the original protocol.
The detection of expression of cyclin D3 and p53 expression was performed by the immunocytochemical procedure as previously described (Mijatovic et al, 2005). The cells were cultivated in glass chamber-slides (3×10^4 cells/well) and cyclin D3 and p53 expression were detected with specific antibodies against cyclin D3 (1:1000, Santa Cruz Biotechnology, Santa Cruz, Calif.) and p53 (1:500, Santa Cruz Biotechnology, Santa Cruz, Calif.). […]

One compound from patent US8563578B2, “Antitumor properties of NO modified protease inhibitors” (Onconox APS, priority 2008, dated 2013) can be followed below.

As to `CC(C)(C)NC(=O)[C@@H]1C[C@@H]2CCCC[C@@H]2CN1C[C@@H](O[N+](=O)[O-])[C@H](Cc1ccccc1)NC(=O)[C@H](CC(N)=O)NC(=O)c1ccc2ccccc2n1` [Saq-NO2, nitric ester of Saquinavir], the cytotoxicity at 18.8 µM in the assay on C6 rat astrocytoma is roughly 50%. In the assay with B16 cells, the dividing potential entry was “decreased dividing potential”. Further, in the assay with C6 cells, the “cyclin D3 expression” value was “not considerably changed” and the p53 expression result was “much higher extent than Saq”.
